# Molecular target: GLP1R (Homo sapiens, UniProt P43220)
# Experiment: GLP1R cAMP HTRF assay, HEK293/GLP-1R/CRE/Luc (HEK293T cells)
# Assay type: cell-based
# Conditions: read-out: EC50
# Summary of the method: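 cAMP accumulation via HTRF after 30 min, 37 °C exposure of 1000 receptor-expressing cells/well to compound (0.5% DMSO final) in IBMX (500 μM)/0.1% BSA DPBS.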
# Sequence of GLP1R (P43220 24-463): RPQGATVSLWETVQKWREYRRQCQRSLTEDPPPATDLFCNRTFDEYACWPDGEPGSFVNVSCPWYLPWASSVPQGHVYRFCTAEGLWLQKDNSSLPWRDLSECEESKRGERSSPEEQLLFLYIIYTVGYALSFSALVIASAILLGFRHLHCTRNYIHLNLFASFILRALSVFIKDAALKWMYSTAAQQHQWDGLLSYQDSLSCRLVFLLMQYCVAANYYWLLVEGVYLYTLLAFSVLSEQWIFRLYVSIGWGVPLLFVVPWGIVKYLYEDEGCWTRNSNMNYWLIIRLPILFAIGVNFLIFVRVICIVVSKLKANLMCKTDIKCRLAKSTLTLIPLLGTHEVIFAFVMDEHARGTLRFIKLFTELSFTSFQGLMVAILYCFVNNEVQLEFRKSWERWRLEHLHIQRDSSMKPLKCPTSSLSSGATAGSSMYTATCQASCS
row,EC50 [nM],Structure (SMILES)
1,≤ 15,"O=C(O)c1ccc2nc(CN3CC=C(c4cccc(OCc5ccc(F)c(F)c5)n4)CC3)n(C[C@@H]3CCO3)c2c1 [Compound 145, (S)-2-((6((3,4-difluorobenzyl)oxy)-3′,6′-dihydro-[2,4′-bipyridin]-1′(2′H)-yl)methyl)-1-(oxetan-2-ylmethyl)-1H-benzo[d]imidazole-6-carboxylic acid]"
2,≤ 15,"Cc1ccc(COc2cccc(C3=CCN(Cc4nc5ccc(C(=O)O)cc5n4C[C@@H]4CCO4)CC3)n2)cc1 [Compound 146, (S)-2-((6-((4-methylbenzyl)oxy)-3′,6′-dihydro-[2,4′-bipyridin]-1′(2′H)-yl)methyl)-1-(oxetan-2-ylmethyl)-1H-benzo[d]imidazole-6-carboxylic acid]"
3,≤ 1000,"CC(C)(C)c1ccc(COc2cccc(C3=CCN(Cc4nc5ccc(C(=O)O)cc5n4C[C@@H]4CCO4)CC3)n2)cc1 [Compound 147, (S)-2-((6-((4-(tert-butyl)benzyl)oxy)-5′,6′-dihydro-[2,4′-bipyridin]-1′(2H)-yl)methyl)-1-(oxetan-2-ylmethyl)-1H-benzo[d]imidazole-6-carboxylic add]"
4,≤ 15,CC(C)c1ccc(COc2cccc(C3=CCN(Cc4nc5ccc(C(=O)O)cc5n4C[C@@H]4CCO4)CC3)n2)cc1 [Compound 148]
5,≤ 1000,"O=C(O)c1ccc2nc(CN3CC=C(c4cccc(OCc5cnccc5C(F)(F)F)n4)CC3)n(C[C@@H]3CCO3)c2c1 [Compound 150, (S)-1-(oxetan-2-ylmethyl)-2-((6-((4-(trifluoromethyl)pyridin-3-yl)methoxy)-3′,6′-dihydro-[2,4′-bipyridin]-1′(2′H)-yl)methyl)-1H-benzo[d]imidazole-6-carboxylic add]"
6,≤ 15,"O=C(O)c1ccc2nc(CN3CC=C(c4cccc(OCc5ccc6c(c5)OCCO6)n4)CC3)n(C[C@@H]3CCO3)c2c1 [Compound 151, (S)-2-((6-((2,3-dihydrobenzo[b][1,4]dioxin-6-yl)methoxy)-3′,6′-dihydro-[2,4′-bipyridin]-1′(2′H)-yl)methyl)-1-(oxetan-2-ylmethyl)-1H-benzo[d]imidazole-6-carboxylic add]"
7,≤ 15,O=C(O)c1ccc2nc(CN3CC=C(c4cccc(OCc5ccc6c(c5)OCO6)n4)CC3)n(C[C@@H]3CCO3)c2c1 [Compound 152]
8,≤ 15,"O=C(O)c1ccc2nc(CN3CC=C(c4cccc(OCc5ccc6c(c5)OC(F)(F)O6)n4)CC3)n(C[C@@H]3CCO3)c2c1 [Compound 153, (S)-2-((6-((2,2-difluorobenzo[d][1,3]dioxol-5-yl)methoxy)-3′,6′-dihydro-[2,4′-bipyridin]-1′(2′H)-yl)methyl)-1-(oxetan-2-ylmethyl)-1H-benzo[d]imidazole-6-carboxylic acid]"
9,≤ 15,"O=C(O)c1ccc2nc(CN3CC=C(c4cccc(OCc5ccc(-n6ccnc6)cc5)n4)CC3)n(C[C@@H]3CCO3)c2c1 [Compound 154, (S)-2-((6-((4-(1H-imidazol-1-yl)benzyl)oxy)-3′,6′-dihydro-[2,4′-bipyridin]-1′(2′H)-yl)methyl)-1-(oxetan-2-ylmethyl)-1H-benzo[d]imidazole-6-carboxylic acid]"
10,≤ 15,"O=C(O)c1ccc2nc(CN3CC=C(c4cccc(OCc5ccccc5F)n4)CC3)n(C[C@@H]3CCO3)c2c1 [Compound 155, (S)-2-((6-((2-fluorobenzyl)oxy)-3′,6′-dihydro-[2H′-bipyridin]-1′(2′H)-yl)methyl)-1-(oxetan-2-ylmethyl)-1H-benzo[d]imidazole-6-carboxylic acid]"
11,≤ 150,"O=C(O)c1ccc2nc(CN3CC=C(c4cccc(OCc5cccc(F)c5)n4)CC3)n(C[C@@H]3CCO3)c2c1 [Compound 156, (S)-2-((6-((3-fluorobenzyl)oxy)-3′,6′-dihydro-[2,4′-bipyridin]-1′(2′H)-yl)methyl)-1-(oxetan-2-ylmethyl)-1H-benzo[d]imidazole-6-carboxylic add]"
12,≤ 15,"O=C(O)c1ccc2nc(CN3CC=C(c4cccc(OCc5ccc(F)cc5)n4)CC3)n(C[C@@H]3CCO3)c2c1 [Compound 157, (S)-2-((6-((4-fluorobenzyl)oxy)-3′,6′-dihydro-[2H′-bipyridin]-1′(2′H)-yl)methyl)-1-(oxetan-2-ylmethyl)-1H-benzo[d]imidazole-6-carboxylic acid]"
13,≤ 150,O=C(O)c1ccc2nc(CN3CC=C(c4cccc(OCc5cccnc5)n4)CC3)n(C[C@@H]3CCO3)c2c1 [Compound 158]
14,≤ 150,"O=C(O)c1ccc2nc(CN3CC=C(c4cccc(OCc5ccccn5)n4)CC3)n(C[C@@H]3CCO3)c2c1 [Compound 159, (S)-1-(oxetan-2-ylmethyl)-2-((6-(pyridin-2-ylmethoxy)-5′,6′-dihydro-[2,4′-bipyridin]-1′(2′H)-yl)methyl)-1H-benzo[d]imidazole-6-carboxylic acid]"
15,≤ 150,"O=C(O)c1ccc2nc(CN3CC=C(c4cccc(OCc5ccncc5)n4)CC3)n(C[C@@H]3CCO3)c2c1 [Compound 160, (S)-1-(oxetan-2-ylmethyl)-2-((6-(pyridin-4-ylmethoxy)-5′,6′-dihydro-[2H′-bipyridin]-1′(2′H)-yl)methyl)-1H-benzo[d]imidazole-6-carboxylic acid]"
16,≤ 150,"Cc1ncccc1COc1cccc(C2=CCN(Cc3nc4ccc(C(=O)O)cc4n3C[C@@H]3CCO3)CC2)n1 [Compound 161, (S)-2-((6-((2-methylpyridin-3-yl)methoxy)-3′,6′-dihydro-[2,4′-bipyridin]-1′(2′ H)-yl)methyl)-1-(oxetan-2-ylmethyl)-1H-benzo[d]imidazole-6-carboxylic acid]"
17,≤ 150,"O=C(O)c1ccc2nc(CN3CC=C(c4cccc(OCc5ccnc(Cl)c5)n4)CC3)n(C[C@@H]3CCO3)c2c1 [Compound 162, (S)-2-((6-((2-chloropyridin-4-yl)methoxy)-3′,6′-dihydro-[2,4′-bipyridin]-1′(2′H)-yl)methyl)-1-(oxetan-2-ylmethyl)-1H-benzo[d]imidazole-6-carboxylic acid]"
18,≤ 15,O=C(O)c1ccc2nc(CN3CC=C(c4cccc(OCc5cccnc5Cl)n4)CC3)n(C[C@@H]3CCO3)c2c1 [Compound 163]
19,≤ 150,"O=C(O)c1ccc2nc(CN3CC=C(c4cccc(OCc5ncc(Cl)cn5)n4)CC3)n(C[C@@H]3CCO3)c2c1 [Compound 164, (S)-2-((6-((5-chloropyrimidin-2-yl)methoxy)-3′,6′-dihydro-[2H′-bipyridin]-1′(2′H)-yl)methyl)-1-(oxetan-2-ylmethyl)-1H-benzo[d]imidazole-6-carboxylic acid]"
20,≤ 1000,"O=C(O)c1ccc2nc(CN3CC=C(c4cccc(OCc5cnccn5)n4)CC3)n(C[C@@H]3CCO3)c2c1 [Compound 165, (S)-1-(oxetan-2-ylmethyl)-2-((6-(pyrazin-2-ylmethoxy)-3′,6′-dihydro-[2,4′-bipyridin]-1′(2′H)-yl)methyl)-1H-benzo[d]imidazole-6-carboxylic acid]"
21,≤ 150,"CCOc1ccc(COc2cccc(C3=CCN(Cc4nc5ccc(C(=O)O)cc5n4C[C@@H]4CCO4)CC3)n2)cc1OC [Compound 166, (S)-2((6-((4-ethoxy-3-methoxybenzyl)oxy)-3′,6′-dihydro-[2,4′-bipyridin]-1′(2′H)-yl)methyl)-1-(oxetan-2-ylmethyl)-1H-benzo[d]imidazole-6-carboxylic acid]"
22,≤ 150,"O=C(O)c1ccc2nc(CN3CCN(c4ncnc(OCc5ccc(Cl)cc5F)n4)CC3)n(C[C@@H]3CCO3)c2c1 [Compound 167, (S)-2-((4-(4-((4-chloro-2-fluorobenzyl)oxy)-1,3,5-triazin-2-yl)piperazin-1-yl)methyl)-1-(oxetan-2-ylmethyl)-1H-benzo[d]imidazole-6-carboxylic acid]"
23,≤ 15,"O=C(O)c1ccc2nc(CN3CC(=O)N(c4cccc(OCc5ccc(Cl)cc5F)n4)CC3=O)n(C[C@@H]3CCO3)c2c1 [Compound 168, (S)-2-((4-(6-(4-chloro-2-fluorobenzyloxy)pyridin-2-yl)-2,5-dioxopiperazin-1-yl)methyl)-1-(oxetan-2-ylmethyl)-1H-benzo[d]imidazole-6-carboxylic acid]"
24,≤ 15,"O=C(O)c1ccc2nc(CN3CC=C(c4cccc(OCc5ccc(Cl)cc5F)n4)CC3)n(C[C@@H]3CCO3)c2n1 [Compound 169, (S)-2-((6-((4-chloro-2-fluorobenzyl)oxy)-3′,6′-dihydro-[2,4′-bipyridin]-1′(2′H)-yl)methyl)-3-(oxetan-2-ylmethyl)-3H-imidazo[4,5-b]pyridine-5-carboxylic acid]"
25,≤ 15,"O=C(O)c1cc2c(cn1)nc(CN1CC=C(c3cccc(OCc4ccc(Cl)cc4F)n3)CC1)n2C[C@@H]1CCO1 [Compound 170, (S)-2-((G-((4-chloro-2-fluorobenzyl)oxy)-3′,6′-dihydro-[2H′-bipyridin]-1 (2′H)-yl)methyl)-1-(oxetan-2-ylmethyl)-1H-imidazo[4,5-c]pyridine-6-carboxylic acid]"
26,≤ 15,"O=C(O)c1ccc2nc(CN3CC=C(c4cccc(OCc5ccc(Cl)cc5F)n4)CC3)n(C[C@@H]3CCO3)c2c1F [Compound 171, (S)-2-((6-((4-chloro-2-fluorobenzyl)oxy)-3′,6′-dihydro-[2,4′-bipyridin]-1′(2′H)-yl)methyl)-7-fluoro-1-(oxetan-2-ylmethyl)-1H-benzo[d]imidazole-6-carboxylic acid]"
27,≤ 15,"O=C(O)c1cc2c(cc1F)nc(CN1CC=C(c3cccc(OCc4ccc(Cl)cc4F)n3)CC1)n2C[C@@H]1CCO1 [Compound 172, (S)-2-((6-((4-chloro-2-fluorobenzyl)oxy)-3′,6′-dihydro-[2H′-bipyridin]-1′(2′H)-yl)methyl)-5-fluoro-1-(oxetan-2-ylmethyl)-1H-benzo[d]imidazole-6-carboxylic acid]"

row,Structure (SMILES),EC50 [nM]
1,"O=C(O)c1ccc2nc(CN3CC=C(c4cccc(OCc5ncc(C(F)(F)F)cc5F)n4)CC3)n(C[C@@H]3CCO3)c2c1 [Compound 149, (S)-2-((6-((3-fluoro-5-(trifluoromethyl)pyridin-2-yl)methoxy)-3′,6′-dihydro-[2H′-bipyridin]-1′(2′II)-yl)methyl)-1-(oxetan-2-ylmethyl)-1H-benzo[d]imidazole-6-carboxylic acid]",≤ 15
